Measurements published in PMC8009514 (Langmuir, 2020).
Read-outs that look alike come from different tables or passages of the source. Blank lines part the entries; values can stand above or below the molecule they belong to. Ends that are not written are not given here.

Columns and labels:
[1] = cited from earlier work
Source text: Table 1 Some Physicochemical Properties of the Three Solvents in Which the Self-Assembly of the Peptides Was Investigated | column: H2O; MeOH; DMF

[2] = Monomer solubility (cs) from scattered light intensity on dilution; format: physicochemical
Description: Dynamic light scattering (DLS) experiments were performed with an ALV/DLS/SLS-5022F goniometer system with an ALV-7004 correlator at a scattering angle of 90°. The laser source was a 22 mW He–Ne laser with a wavelength of 632.8 nm. The samples were placed in 5 mm glass tubes, kept at 25 °C, and the intensity autocorrelation functions were collected over runs of 300 s, using two avalanche photodiode detectors operating in the pseudo-cross-correlational mode. Light scattering experiments were also performed using a modulated three-dimensional light scattering instrument (LS Instruments GmbH, Switzerland), implementing a laser with a wavelength of 660 nm and two avalanche photodiodes. […] The experimental intensity correlation functions g^(2)(τ) were converted to C(τ) = (g^(2)(τ) – 1)/β = |g^(1)(τ)|^2,[35] where β is an instrumental constant, close to unity, and g^(1)(τ) is the correlation function of the electric field, which was fitted using the cumulant expansion to obtain an average diffusion coefficient.[36] Fitting was performed with an in-house MATLAB script.
Aggregates begin to form above a particular concentration, which can be interpreted as the monomer solubility, cs. This concentration can be measured, for example, by following the scattered light intensity as a function of dilution of a sample with an initial concentration c > cs.[13] For this purpose, solutions of the peptides at 1 wt % were gradually diluted in order to determine at which concentration the light scattering signal reached the solvent level, which is a good indication of the monomer solubility. […] For A8K, the monomer solubilities of about 10 μM were obtained, which means approximately 2 orders of magnitude smaller compared to that in water.

[3] = Visual observation of gel-like (arrested) state; format: physicochemical
Description: Previous SAXS experiments on the peptides in water[13],[17] have shown that this concentration could be considered dilute enough not to manifest any effects of interaggregate interactions in the scattering profiles. The first observation made was that the peptide samples in MeOH and DMF were more viscous than the corresponding samples in water prepared at similar concentrations and presented highly viscous (gel-like) states after 5-12 h from solubilization (Figure 2).

[4] = cited from earlier work; remark: listed apart in the source
Source text: Aggregates begin to form above a particular concentration, which can be interpreted as the monomer solubility, cs. This concentration can be measured, for example, by following the scattered light intensity as a function of dilution of a sample with an initial concentration c > cs.[13] For this purpose, solutions of the peptides at 1 wt % were gradually diluted in order to determine at which concentration the light scattering signal reached the solvent level, which is a good indication of the monomer solubility. With this method, monomer solubilities of 2 mM and 7 μM in water were determined f ...

[5] = target: the molecule itself; assay: light scattering intensity on dilution; peptide in N,N-dimethylformamide, 1 wt % solution gradually diluted, mean count rate at 90°; concentration at which the signal reaches the solvent level is taken as monomer solubility
[6] = light scattering intensity on dilution; peptide in methanol, 1 wt % solution gradually diluted, mean count rate at 90°; concentration at which the signal reaches the solvent level is taken as monomer solubility; settings: other: light scattering intensity on dilution
[7] = light scattering intensity on dilution; peptide in N,N-dimethylformamide, 1 wt % solution gradually diluted, mean count rate at 90°; concentration at which the signal reaches the solvent level is taken as monomer solubility; settings: other: light scattering intensity on dilution

Molecule: CCCCCCCCCCCCOS(=O)(=O)[O-].[Na+] [SDS]
CMC of SDS at 25 °C ([1]; in DMF): 14.6 mM
CMC of SDS at 25 °C ([1]; in H2O): 7.8 mM
CMC of SDS at 25 °C ([1]; in MeOH): 6.9 mM

monomer solubility cs ([2]; in DMF, 1 wt % TFA-salt solution gradually diluted until light scattering signal reached solvent level, mean count rate at 90°, average of three runs of 100 s): approximately the same solubilities
monomer solubility cs ([2]; in MeOH, 1 wt % TFA-salt solution gradually diluted until light scattering signal reached solvent level, mean count rate at 90°, average of three runs of 100 s): approximately the same solubilities
time from solubilization to highly viscous (gel-like) state ([3]; samples around 1 wt % in MeOH and DMF): 5 to 12 h
Molecule: C[C@H](N)C(=O)N[C@@H](C)C(=O)N[C@@H](C)C(=O)N[C@@H](C)C(=O)N[C@@H](C)C(=O)N[C@@H](C)C(=O)N[C@@H](C)C(=O)N[C@@H](C)C(=O)N[C@@H](C)C(=O)N[C@@H](C)C(=O)N[C@@H](CCCCN)C(=O)O [A10K]
monomer solubility cs ([4]; in water, scattered light intensity on dilution of a sample with c > cs): 7 µM

Molecule: CCCCCC [hexane]
solubility of hexane at 25 °C ([1]; in H2O): 0.0124 mg/mL
solubility of hexane at 25 °C ([1]; in MeOH): 604 mg/mL

monomer solubility cs [2]: about 10 μM
time from solubilization to highly viscous (gel-like) state [3]: 5 to 12 h
Molecule: AAAAAAAAK [A8K]
monomer solubility cs [4]: 2000 µM

B1: A10K amphiphilic model peptide (peptide)
peptide: AAAAAAAAAAK
notes: unprotected N-terminus; 11 residues, 857 g/mol; Designed model peptide; The printed molecular weight (857 g/mol) fits free N- and C-termini; TFA counterions are present; also called AnK (n = 10); source: synthetic peptide; bought: CPC Scientific Inc., trifluoroacetate salt, purity >96%, used without further purification
binding result [5]: binds

Molecule: AAAAAAAAK [A8K amphiphilic model peptide]
monomer solubility cs (concentration above which aggregates form) [6]: For A8K, the monomer solubilities of about 10 μM were obtained
monomer solubility cs (concentration above which aggregates form) [7]: For A8K, the monomer solubilities of about 10 μM were obtained
